Data published in patent US9642874B2, “Compositions of selenoorganic compounds and methods of use thereof” (Alltech, Inc., priority 2014, dated 2017).

Legend:
G6pc = G6pc mRNA expression (QRT-PCR) in primary mouse hepatocytes; assay type: cell-based
Method: (§1) The overnight-acclimated hepatocytes were washed twice with PBS (to remove any residual FBS and other additives in the TRL hepatocyte maintenance medium, pretreated with control (water) or selenium Compounds CDE (150 or 300 ppb of each selenium compound) in DMEM/F12 media supplemented with 10% fetal bovine serum (FBS) for 24 hr. These cells were then washed twice with PBS and incubated with the same dose of selenium Compounds CDE (150 or 300 ppb) in the presence or absence of insulin (10 or 100 nM, Sigma), 0.1 mM 8-CPT (Sigma) or 0.5 μM Dex (Sigma) in serum-free and glucose-free DMEM media (Invitrogen) supplemented with 20 mM lactose (Sigma) and 2 mM pyruvate (Sigma) and 15 mM HEPES (Sigma) for another 6 hours. After treatments, cell media were collected and subjected to glucose assay and toxicological studies of lactate dehydrogenase (LDH) and cells were collected for RNA and protein analysis.
Total RNA from these cells was isolated using Trizol (Invitrogen) according to the Manufacturer's protocol and then incubated with DNase I to remove any potential contaminated genomic DNA. Then RNA samples were subjected to real-time PCR analysis using the Applied-Bioscience's RT kit and predesigned Taqman probes (Invitrogen), as described previously (Lan et al EMBO J 2003). Three to four samples were analyzed in each treatment group. […]

[1] = system: primary mouse hepatocytes; test: Toxicological study: LDH level in culture media of primary mouse hepatocytes; assay type: cell-based; settings: Compounds CDE (150, 300 ppb), insulin (10, 100 nM) or both; 24 hours serum-containing + 6 hours
Method: as §1, with “After treatments, cell media were collected and subjected to glucose assay and toxicological studies of lactate dehydrogenase (LDH) and cells were collected for RNA and protein analysis.” left out
Similar to the above glucose assay, cell culture media from the above described treatments were collected and centrifuged at 300×g for 5 minutes to remove any potential dislodged hepatocytes and subjected to LDH analysis using a […] (Abcam) according to the manufacturer protocol. In brief, the absorbance at OD450 nm in LDH standards and the culture medium samples after incubation with LDH substrates for every two minutes up to 40 minutes were determined by the Bio-Tek microplate reader. […]

Substance: insulin: insulin (10 or 100 nM, Sigma) used as comparator and cotreatment
- 8-CPT/Dex-induced G6pc expression (G6pc; insulin 10 and 100 nM, vs 8-CPT/Dex group): significantly decreased 8-CPT/Dex-induced G6pc expression
- G6pc expression (G6pc; insulin alone (10 and 100 nM), 6 hours): significantly inhibited G6pc expression
- LDH levels in the media [1]: did not cause a significant increase of LDH levels
